Results as given in patent US20090304692A1, “TRIAZINE COMPOUNDS AS PI3 KINASE AND MTOR INHIBITORS” (Wyeth, priority 2008, published 2009).
pIC50: −log10 of the molar value. Where two headings read alike, the source gives them in different places.

Target: PI3K-γ (Homo sapiens, UniProt P48736)
Assay: PI3K-gamma fluorescence polarization assay

PI3K-γ, sequence (P48736 whole entry, species assumed): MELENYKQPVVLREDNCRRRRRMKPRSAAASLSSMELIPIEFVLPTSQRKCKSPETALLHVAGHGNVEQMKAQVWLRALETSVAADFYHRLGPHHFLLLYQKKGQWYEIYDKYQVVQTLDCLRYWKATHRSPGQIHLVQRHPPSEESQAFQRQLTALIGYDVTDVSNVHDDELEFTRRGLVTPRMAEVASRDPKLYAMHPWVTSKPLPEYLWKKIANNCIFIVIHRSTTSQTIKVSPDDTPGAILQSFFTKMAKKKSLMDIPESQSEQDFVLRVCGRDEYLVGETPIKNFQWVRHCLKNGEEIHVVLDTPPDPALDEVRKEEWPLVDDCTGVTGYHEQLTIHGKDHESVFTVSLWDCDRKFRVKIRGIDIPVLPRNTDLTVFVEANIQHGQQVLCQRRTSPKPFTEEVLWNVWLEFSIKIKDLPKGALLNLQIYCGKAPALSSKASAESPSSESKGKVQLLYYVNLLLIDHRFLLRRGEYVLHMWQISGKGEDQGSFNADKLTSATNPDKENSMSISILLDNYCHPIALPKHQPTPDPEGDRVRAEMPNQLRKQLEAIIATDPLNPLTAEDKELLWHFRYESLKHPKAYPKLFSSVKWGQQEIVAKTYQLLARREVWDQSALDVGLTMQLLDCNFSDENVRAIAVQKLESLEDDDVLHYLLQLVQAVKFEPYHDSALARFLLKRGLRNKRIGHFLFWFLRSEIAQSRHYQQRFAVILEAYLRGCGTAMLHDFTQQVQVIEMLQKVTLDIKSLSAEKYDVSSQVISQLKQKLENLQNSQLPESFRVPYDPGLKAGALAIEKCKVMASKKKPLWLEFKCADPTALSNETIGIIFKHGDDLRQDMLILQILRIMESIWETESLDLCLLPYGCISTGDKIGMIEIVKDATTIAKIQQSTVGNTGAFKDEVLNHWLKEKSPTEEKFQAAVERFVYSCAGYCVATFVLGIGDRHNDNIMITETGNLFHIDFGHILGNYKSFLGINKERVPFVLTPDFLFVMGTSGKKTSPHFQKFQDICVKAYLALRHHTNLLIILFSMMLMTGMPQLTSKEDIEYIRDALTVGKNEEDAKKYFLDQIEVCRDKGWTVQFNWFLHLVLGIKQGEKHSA

| SMILES | pIC50 (read-out: IC50 PI3Kγ) | pIC50 |
| --- | --- | --- |
| C[C@@H]1COCCN1c1nc(-c2ccc(NC(=O)Nc3ccc(C(=O)N4CCN(C)CC4)cc3)cc2)nc(N2C3CCC2COC3)n1 [Example 444, 1-(4-(4-(3-oxa-8-azabicyclo[3.2.1]octan-8-yl)-6-((R)-3-methylmorpholino)-1,3,5-triazin-2-yl)phenyl)-3-(4-(4-methylpiperazine-1-carbonyl)phenyl)urea] | 5.96 |  |
| CN(C)C1CCN(c2ccc(NC(=O)Nc3ccc(-c4nc(C5CCOCC5)nc(N5C6CCC5COC6)n4)cc3)cc2)CC1 [Example 437, 1-(4-(4-(3-oxa-8-azabicyclo[3.2.1]octan-8-yl)-6-(tetrahydro-2H-pyran-4-yl)-1,3,5-triazin-2-yl)phenyl)-3-(4-(4-(dimethylamino)piperidin-1-yl)phenyl)urea] | 5.79 |  |
| CNCc1ccc(NC(=O)Nc2ccc(-c3nc(N4C5CCC4COC5)nc(N4C5CCC4COC5)n3)cc2)cc1 [Example 288, 1-[4-(4,6-di-3-oxa-8-azabicyclo[3.2.1]oct-8-yl-1,3,5-triazin-2-yl)phenyl]-3-{4-[(methylamino)methyl]phenyl}urea] | 5.56 |  |
| CN1CCN(c2ccc(NC(=O)Nc3ccc(-c4nc(N5CCSCC5)nc(N5C6CCC5COC6)n4)cc3)cc2)CC1 [Example 394, 1-(4-(4-(3-oxa-8-azabicyclo[3.2.1]octan-8-yl)-6-thiomorpholino-1,3,5-triazin-2-yl)phenyl)-3-(4-(4-methylpiperazin-1-yl)phenyl)urea] | 5.49 |  |
| CN(C)CCOc1ccc(NC(=O)Nc2ccc(-c3nc(N4C5CCC4COC5)nc(N4C5CCC4COC5)n3)cc2)cc1 [Example 289, 1-{4-[2-(dimethylamino)ethoxy]phenyl}-3-[4-(4,6-di-3-oxa-8-azabicyclo[3.2.1]oct-8-yl-1,3,5-triazin-2-yl)phenyl]urea] | 5.41 |  |
| CN1CCN(c2ccc(NC(=O)Nc3ccc(-c4nc(C5CCOCC5)nc(N5C6CCC5COC6)n4)cc3)cc2)CC1 [Example 407, 1-(4-(4-(3-oxa-8-azabicyclo[3.2.1]octan-8-yl)-6-(tetrahydro-2H-pyran-4-yl)-1,3,5-triazin-2-yl)phenyl)-3-(4-(4-methylpiperazin-1-yl)phenyl)urea] | 5.65 |  |
| CCN1CCN(c2ccc(NC(=O)Nc3ccc(-c4nc(C5CCOCC5)nc(N5C6CCC5COC6)n4)cc3)cc2)CC1 [Example 434, 1-(4-(4-(3-oxa-8-azabicyclo[3.2.1]octan-8-yl)-6-(tetrahydro-2H-pyran-4-yl)-1,3,5-triazin-2-yl)phenyl)-3-(4-(4-ethylpiperazin-1-yl)phenyl)urea] | 5.32 |  |
| CC(C)N1CCN(c2ccc(NC(=O)Nc3ccc(-c4nc(N5C6CCC5COC6)nc(N5CCOC[C@H]5C)n4)cc3)cc2)CC1 [Example 441, 1-(4-(4-(3-oxa-8-azabicyclo[3.2.1]octan-8-yl)-6-((R)-3-methylmorpholino)-1,3,5-triazin-2-yl)phenyl)-3-(4-(4-isopropylpiperazin-1-yl)phenyl)urea] |  | < 5.00 |
| C[C@H]1COCCN1c1nc(-c2ccc(NC(=O)Nc3ccc(C(=O)N4CCN(C)CC4)cc3)cc2)nc(N2C3CCC2COC3)n1 [Example 835, 1-(4-{4-[(3S)-3-methylmorpholin-4-yl]-6-(3-oxa-8-azabicyclo[3.2.1]oct-8-yl)-1,3,5-triazin-2-yl}phenyl)-3-{4-[(4-methylpiperazin-1-yl)carbonyl]phenyl}urea] | 7.18 |  |
| CC(C)N(C)c1nc(-c2ccc(NC(=O)Nc3ccc(N4CCN(C)CC4)cc3)cc2)nc(N2C3CCC2COC3)n1 [Example 389, 1-(4-(4-(3-oxa-8-azabicyclo[3.2.1]octan-8-yl)-6-(isopropyl(methyl)amino)-1,3,5-triazin-2-yl)phenyl)-3-(4-(4-methylpiperazin-1-yl)phenyl)urea] | 5.25 |  |
| O=C(Nc1ccc(OCCO)cc1)Nc1ccc(-c2nc(N3C4CCC3COC4)nc(N3C4CCC3COC4)n2)cc1 [Example 372, 1-(4-(4,6-di(3-oxa-8-azabicyclo[3.2.1]octan-8-yl)-1,3,5-triazin-2-yl)phenyl)-3-(4-(2-hydroxyethoxy)phenyl)urea] | 5.14 |  |
